Results: patent publication US12673975B2, “Cyclic peptide, cell scaffold material, cell separating material, and medium” (FUJIFILM Corporation, priority 2019, dated 2026)
Like-named read-outs stand apart in the source and are kept apart here. Starred links: 1 amine or outer side, 2 acyl side, 3 side chain; linkers in the order of their positions; H or OH if unused. Positions of bridges follow the written chain, without caps; N, C: chain ends. Non-standard residues stand in square brackets, D forms with d. Residues, ends and D or L forms follow the SMILES beside them. Pen = CC(C)(S)[C@H](N)C(=O)O; hCys = N[C@@H](CCS)C(=O)O; Dab = NCC[C@H](N)C(=O)O; Dap = NC[C@H](N)C(=O)O; X1 = O=C(C[*:2])[*:1]; X2 = O=C(C[*:1])[*:2]

How the values were obtained:
[1] = target: human integrin αvβ5 (Homo sapiens, UniProt P06756+P18084); test: Evaluation of integrin binding property (surface plasmon resonance, Biacore 3000, immobilized cyclic peptide)
human integrin αvβ5, sequence (P06756 31-1048): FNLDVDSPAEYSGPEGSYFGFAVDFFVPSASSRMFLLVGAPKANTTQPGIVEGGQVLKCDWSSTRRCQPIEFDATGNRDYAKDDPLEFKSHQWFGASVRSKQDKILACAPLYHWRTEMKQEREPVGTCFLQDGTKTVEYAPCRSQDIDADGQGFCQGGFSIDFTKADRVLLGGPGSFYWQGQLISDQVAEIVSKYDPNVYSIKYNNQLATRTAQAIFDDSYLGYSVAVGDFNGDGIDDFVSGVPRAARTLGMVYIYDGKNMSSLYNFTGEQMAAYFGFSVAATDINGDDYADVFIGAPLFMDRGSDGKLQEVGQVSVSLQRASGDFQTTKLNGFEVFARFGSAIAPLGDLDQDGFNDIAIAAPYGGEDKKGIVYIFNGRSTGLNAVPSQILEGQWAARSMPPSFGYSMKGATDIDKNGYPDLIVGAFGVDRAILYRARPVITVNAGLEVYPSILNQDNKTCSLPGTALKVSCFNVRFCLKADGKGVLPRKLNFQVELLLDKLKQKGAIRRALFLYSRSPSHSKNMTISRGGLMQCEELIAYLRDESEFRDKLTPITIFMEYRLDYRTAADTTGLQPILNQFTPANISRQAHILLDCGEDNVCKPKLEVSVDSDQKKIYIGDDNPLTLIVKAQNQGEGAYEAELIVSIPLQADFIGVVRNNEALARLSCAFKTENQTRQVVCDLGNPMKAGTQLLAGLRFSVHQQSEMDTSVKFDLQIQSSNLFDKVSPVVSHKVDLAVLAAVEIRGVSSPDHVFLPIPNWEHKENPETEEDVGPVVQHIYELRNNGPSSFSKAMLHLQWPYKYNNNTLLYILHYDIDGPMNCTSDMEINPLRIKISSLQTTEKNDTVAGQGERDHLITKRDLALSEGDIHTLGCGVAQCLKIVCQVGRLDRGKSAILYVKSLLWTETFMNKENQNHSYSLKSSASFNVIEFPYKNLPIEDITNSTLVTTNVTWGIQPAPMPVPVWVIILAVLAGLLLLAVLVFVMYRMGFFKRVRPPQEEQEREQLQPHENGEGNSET
human integrin αvβ5, sequence (P18084 24-799): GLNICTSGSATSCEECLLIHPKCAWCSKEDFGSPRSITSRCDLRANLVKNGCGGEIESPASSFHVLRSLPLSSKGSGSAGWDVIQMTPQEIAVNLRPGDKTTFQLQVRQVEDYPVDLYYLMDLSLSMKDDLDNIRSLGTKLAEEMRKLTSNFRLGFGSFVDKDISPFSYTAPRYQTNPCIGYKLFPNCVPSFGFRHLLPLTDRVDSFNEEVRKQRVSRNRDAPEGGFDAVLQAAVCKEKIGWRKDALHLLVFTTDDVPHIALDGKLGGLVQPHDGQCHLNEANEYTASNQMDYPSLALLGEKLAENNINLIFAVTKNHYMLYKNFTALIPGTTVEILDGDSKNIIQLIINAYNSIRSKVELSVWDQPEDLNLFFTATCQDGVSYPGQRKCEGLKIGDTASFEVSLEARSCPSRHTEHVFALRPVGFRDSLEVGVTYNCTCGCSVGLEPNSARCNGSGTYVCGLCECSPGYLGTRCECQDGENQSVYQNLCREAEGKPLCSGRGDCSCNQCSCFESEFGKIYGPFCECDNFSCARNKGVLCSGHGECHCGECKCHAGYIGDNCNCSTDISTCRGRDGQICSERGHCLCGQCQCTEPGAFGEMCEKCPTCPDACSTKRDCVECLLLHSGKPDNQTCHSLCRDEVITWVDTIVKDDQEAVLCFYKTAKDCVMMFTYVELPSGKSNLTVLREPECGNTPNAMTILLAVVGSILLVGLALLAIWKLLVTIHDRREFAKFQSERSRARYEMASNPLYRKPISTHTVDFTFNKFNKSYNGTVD
Outline: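 SPR with cyclic peptide amine-coupled via EDC/NHS to a CM5 chip, blank channel as reference. Integrin αvβ5 at 30, 100, 300 and 1,000 nM injected 10 min at 25 °C in HEPES buffer pH 7.4 with 5 mM MgCl2, 30 min buffer flow, EDTA regeneration; Kd from reference-subtracted signals, graded by category.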

[2] = Evaluation of molecule stability (alkali treatment, residual rate by LC/MS); format: physicochemical; settings: for Performance evaluation: Stability (residual rate of cyclic peptide after alkali treatment): 500 μM peptide aqueous solution plus equivalent of 1 M sodium hydroxide, 15° C., 3 hours, LC/MS peak area; for Stability (molecule stability, residual rate of the cyclic peptide rank): alkali treatment, residual rate by LC/MS
Outline: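 500 μM aqueous cyclic peptide mixed with an equal volume of 1 M NaOH and held 3 h at 15 °C. Residual rate is total LC/MS peak area after treatment relative to untreated (100%), using a C18 column, pH 3 ammonium formate/acetonitrile gradient, 45 °C, ESI±.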

[3] = SPR, 25° C., HEPES buffer with 5 mM magnesium chloride, integrin 30-1,000 nM, read-out: Performance evaluation: Binding activity (dissociation constant between the cyclic peptide and human integrin αvβ5)
[4] = surface plasmon resonance, immobilized cyclic peptide, human integrin αvβ5, read-out: Binding activity (integrin binding property, dissociation constant rank)

Kd [1, 3] [nM] | Kd [1, 4] [nM] | Structure (SMILES) | Performance evaluation: Stability (residual rate of cyclic peptide after alkali treatment) [2] | Stability (molecule stability, residual rate of the cyclic peptide rank) [2] | Kd [1] [nM]
< 50 |  | CC[C@H](C)[C@@H]1NC(=O)[C@@H](NC(=O)[C@H](CCCCN)NC(=O)[C@H](CCCCN)NC(=O)[C@@H](N)CCCCN)CCSCC(=O)NCC[C@@H](C(=O)O)NC(=O)[C@H](Cc2ccccc2)NC(=O)[C@H](CC(N)=O)NC(=O)[C@H](CC(=O)O)NC(=O)CNC(=O)[C@H](CCCNC(=N)N)NC(=O)[C@@H]2CCCN2C1=O [Cyclic peptide 13, KKK-(Hcy)-IPRGDNF(Dab(acetyl))] (H-KKK[hCys]IPRGDNF[Dab]-OH; linker 4-12 via X2) | A (The residual rate of the cyclic peptide is 70% or more.) |  | 
 | 50 to 100 | CC[C@H](C)[C@@H]1NC(=O)[C@@H](NC(=O)CNC(=O)[C@H](CCCCN)NC(=O)[C@H](CCCCN)NC(=O)[C@@H](N)CCCCN)CCNC(=O)CSC(C)(C)[C@@H](C(=O)N[C@@H](C)C(=O)O)NC(=O)[C@H](CCCNC(=N)N)NC(=O)[C@H](Cc2ccccc2)NC(=O)[C@H]([C@@H](C)O)NC(=O)[C@H](CC(=O)O)NC(=O)CNC(=O)[C@H](CCCNC(=N)N)NC(=O)[C@@H]2CCCN2C1=O [Cyclic peptide 133, KKKG(Dab(acetyl))IPRGDTFR-(Pen)-A] (H-KKKG[Dab]IPRGDTFR[Pen]A-OH; linker 5-14 via X1) |  | A (The residual rate of the cyclic peptide is 70% or more.) | 
< 50 |  | CC[C@H](C)[C@@H]1NC(=O)[C@@H](NC(=O)[C@H](C)NC(=O)[C@H](CCCCN)NC(=O)[C@H](CCCCN)NC(=O)[C@@H](N)CCCCN)CCSCC(=O)NCC[C@@H](C(=O)N[C@@H](C)C(=O)O)NC(=O)CNC(=O)[C@H](Cc2ccccc2)NC(=O)[C@H]([C@@H](C)O)NC(=O)[C@H](CC(=O)O)NC(=O)CNC(=O)[C@H](CCCNC(=N)N)NC(=O)[C@@H]2CCCN2C1=O [Cyclic peptide 88, KKKA-(Hcy)-IPRGDTFG(Dab(acetyl))A] (H-KKKA[hCys]IPRGDTFG[Dab]A-OH; linker 5-14 via X2) | A (The residual rate of the cyclic peptide is 70% or more.) |  | 
50 to 100 |  | C[C@H](NC(=O)[C@H](CCCCN)NC(=O)[C@H](CCCCN)NC(=O)[C@@H](N)CCCCN)C(=O)N[C@H]1CCSCC(=O)NCC[C@@H](C(=O)N[C@@H](CCC(=O)O)C(=O)O)NC(=O)[C@H](CCCNC(=N)N)NC(=O)[C@H](Cc2ccc(O)cc2)NC(=O)[C@H](CC(N)=O)NC(=O)[C@H](CC(=O)O)NC(=O)CNC(=O)[C@H](CCCNC(=N)N)NC(=O)[C@@H]2CCCN2C(=O)[C@H](CCC(=O)O)NC1=O [Cyclic peptide 43, KKKA-(Hcy)-EPRGDNYR(Dab(acetyl))E] (H-KKKA[hCys]EPRGDNYR[Dab]E-OH; linker 5-14 via X2) | A (The residual rate of the cyclic peptide is 70% or more.) |  | 
 |  | CC(C)[C@@H]1NC(=O)[C@@H](NC(=O)CNC(=O)[C@H](CCCCN)NC(=O)[C@H](CCCCN)NC(=O)[C@@H](N)CCCCN)CCSCC(=O)NCC[C@@H](C(=O)NCC(=O)O)NC(=O)[C@H](C)NC(=O)[C@H](Cc2ccccc2)NC(=O)[C@H]([C@@H](C)O)NC(=O)[C@H](CC(=O)O)NC(=O)CNC(=O)[C@H](CCCNC(=N)N)NC(=O)[C@@H]2CCCN2C1=O [Cyclic peptide 105, KKKG-(Hcy)-VPRGDTFA(Dab(acetyl))G] (H-KKKG[hCys]VPRGDTFA[Dab]G-OH; linker 5-14 via X2) |  | A (The residual rate of the cyclic peptide is 70% or more.) | < 50
 | < 50 | C[C@@H]1NC(=O)[C@H](Cc2ccccc2)NC(=O)[C@H]([C@@H](C)O)NC(=O)[C@H](CC(=O)O)NC(=O)CNC(=O)[C@H](CCCNC(=N)N)NC(=O)[C@@H]2CCCN2C(=O)[C@H](CCC(=O)O)NC(=O)[C@@H](NC(=O)[C@H](CCCCN)NC(=O)[C@H](CCCCN)NC(=O)[C@@H](N)CCCCN)CCSCC(=O)NCC[C@@H](C(=O)O)NC1=O [Cyclic peptide 145, KKK-(Hcy)-EPRGDTFA(Dab(acetyl))] (H-KKK[hCys]EPRGDTFA[Dab]-OH; linker 4-13 via X2) |  | A (The residual rate of the cyclic peptide is 70% or more.) | 
50 to 100 |  | N=C(N)NCCC[C@@H]1NC(=O)[C@H](Cc2ccc(O)cc2)NC(=O)[C@H](CC(N)=O)NC(=O)[C@H](CC(=O)O)NC(=O)CNC(=O)[C@H](CCCNC(=N)N)NC(=O)[C@@H]2CCCN2C(=O)[C@H](CCC(=O)O)NC(=O)[C@@H](NC(=O)[C@H](CCCCN)NC(=O)[C@H](CCCCN)NC(=O)[C@@H](N)CCCCN)CCSCC(=O)NCC[C@@H](C(N)=O)NC1=O [Cyclic peptide 49, KKK-(Hcy)-EPRGDNYR(Dab(acetyl))] (H-KKK[hCys]EPRGDNYR[Dab]-NH2; linker 4-13 via X2) | A (The residual rate of the cyclic peptide is 70% or more.) |  | 
< 50 |  | CC[C@H](C)[C@@H]1NC(=O)[C@@H](NC(=O)CNC(=O)[C@H](CCCCN)NC(=O)[C@H](CCCCN)NC(=O)[C@@H](N)CCCCN)CCSCC(=O)NCC[C@@H](C(=O)O)NC(=O)[C@H](CCCNC(=N)N)NC(=O)[C@H](Cc2ccccc2)NC(=O)[C@H](CC(N)=O)NC(=O)[C@H](CC(=O)O)NC(=O)CNC(=O)[C@H](CCCNC(=N)N)NC(=O)[C@@H]2CCCN2C1=O [Cyclic peptide 7, KKKG-(Hcy)-IPRGDNFR(Dab(acetyl))] (H-KKKG[hCys]IPRGDNFR[Dab]-OH; linker 5-14 via X2) | A (The residual rate of the cyclic peptide is 70% or more.) |  | 
 | 50 to 100 | CC[C@H](C)[C@@H]1NC(=O)[C@@H](NC(=O)[C@H](C)NC(=O)[C@H](CCCCN)NC(=O)[C@H](CCCCN)NC(=O)[C@@H](N)CCCCN)CCNC(=O)CSCC[C@@H](C(=O)N[C@@H](C)C(=O)O)NC(=O)[C@H](C)NC(=O)[C@H](Cc2ccccc2)NC(=O)[C@H](CO)NC(=O)[C@H](CC(=O)O)NC(=O)CNC(=O)[C@H](CCCNC(=N)N)NC(=O)[C@@H]2CCCN2C1=O [Cyclic peptide 124, KKKA(Dab(acetyl))IPRGDSFA-(Hcy)-A] (H-KKKA[Dab]IPRGDSFA[hCys]A-OH; linker 5-14 via X1) |  | A (The residual rate of the cyclic peptide is 70% or more.) | 
< 50 |  | CC[C@H](C)[C@@H]1NC(=O)[C@@H](NC(=O)[C@H](C)NC(=O)[C@H](CCCCN)NC(=O)[C@H](CCCCN)NC(=O)[C@@H](N)CCCCN)CCSCC(=O)NCC[C@@H](C(=O)N[C@@H](C)C(=O)O)NC(=O)[C@H](CO)NC(=O)[C@H](Cc2ccccc2)NC(=O)[C@H]([C@@H](C)O)NC(=O)[C@H](CC(=O)O)NC(=O)CNC(=O)[C@H](CCCNC(=N)N)NC(=O)[C@@H]2CCCN2C1=O [Cyclic peptide 83, KKKA-(Hcy)-IPRGDTFS(Dab(acetyl))A] (H-KKKA[hCys]IPRGDTFS[Dab]A-OH; linker 5-14 via X2) | A (The residual rate of the cyclic peptide is 70% or more.) |  | 
50 to 100 |  | C[C@H](NC(=O)[C@@H]1CCNC(=O)CSCC[C@H](NC(=O)[C@H](CCCCN)NC(=O)[C@H](CCCCN)NC(=O)[C@@H](N)CCCCN)C(=O)N[C@@H](CC(=O)O)C(=O)N2CCC[C@H]2C(=O)N[C@@H](CCCNC(=N)N)C(=O)NCC(=O)N[C@@H](CC(=O)O)C(=O)N[C@@H](CC(N)=O)C(=O)N[C@@H](Cc2ccccc2)C(=O)N[C@@H](CCCNC(=N)N)C(=O)N1)C(=O)O [Cyclic peptide 22, KKK-(Hcy)-DPRGDNFR(Dab(acetyl))A] (H-KKK[hCys]DPRGDNFR[Dab]A-OH; linker 4-13 via X2) | A (The residual rate of the cyclic peptide is 70% or more.) |  | 
< 50 |  | CC[C@H](C)[C@@H]1NC(=O)[C@@H](NC(=O)[C@H](C)NC(=O)[C@H](CCCCN)NC(=O)[C@H](CCCCN)NC(=O)[C@@H](N)CCCCN)CCSCC(=O)NCC[C@@H](C(=O)N[C@@H](C)C(=O)O)NC(=O)[C@H](CCCNC(=N)N)NC(=O)[C@H](Cc2ccccc2)NC(=O)[C@H]([C@@H](C)O)NC(=O)[C@H](CC(=O)O)NC(=O)CNC(=O)[C@H](CCCNC(=N)N)NC(=O)[C@@H]2CCCN2C1=O [Cyclic peptide 56, KKKA-(Hcy)-IPRGDTFR(Dab(acetyl))A] (H-KKKA[hCys]IPRGDTFR[Dab]A-OH; linker 5-14 via X2) | A (The residual rate of the cyclic peptide is 70% or more.) |  | 
 | < 50 | CC[C@H](C)[C@@H]1NC(=O)[C@@H](NC(=O)CNC(=O)[C@H](CCCCN)NC(=O)[C@H](CCCCN)NC(=O)[C@@H](N)CCCCN)CCSCC(=O)NC[C@@H](C(=O)N[C@@H](C)C(=O)O)NC(=O)[C@H](CCCNC(=N)N)NC(=O)[C@H](Cc2ccccc2)NC(=O)[C@H]([C@@H](C)O)NC(=O)[C@H](CC(=O)O)NC(=O)CNC(=O)[C@H](CCCNC(=N)N)NC(=O)[C@@H]2CCCN2C1=O [Cyclic peptide 114, KKKG-(Hcy)-IPRGDTFR(Dap(acetyl))A] (H-KKKG[hCys]IPRGDTFR[Dap]A-OH; linker 5-14 via X2) |  | B (The residual rate of the cyclic peptide is 50% or more and less than 70%.) | 
